The source of these data is patent publication US11964950B2, “Arylamide derivative having antitumor activity” (priority 2020, dated 2024).

The structures appear in SMILES notation.

Data set [1] concerns NCI-H2122 human lung cancer cells. Kind of data set: Cell proliferation-inhibiting activity, NCI-H2122 (CellTiter-Glo, ATP in viable cells). The following applies: NCI-H2122, 96 h, Table 3, 4 days culture. Type of data set: cell-based. The procedure:
(§1) The cell proliferation-inhibiting activity of the compounds listed in Table 3 below was evaluated by measuring the amount of ATP in viable cells as described below.
(§2) The test compound was serially diluted with DMSO and then diluted 25-fold with Ca^2+, Mg^2+-free phosphate-buffered saline, and was then dispensed into a 96-well plate at 5 μL per well. A cell suspension containing the below indicated concentration of A549, Calu-6 or NCI-H2122 human lung cancer cells (all obtained from ATCC) was prepared using the below indicated medium with the addition of 10% fetal bovine serum (Sigma). The cell suspension was dispensed into the test compound-added plate at 95 μL per well and cultured in a 5% carbon dioxide gas incubator at 37° C. After 4 days, 80 μL of CellTiter-Glo (registered trademark) (Promega Corp.) was added to each well and the bioluminescence was measured with a fluorescent plate reader.

Data set [2] relates to A549 human lung cancer cells. The experiment in a line: Cell proliferation-inhibiting activity, A549 (CellTiter-Glo, ATP in viable cells). Type of data set: cell-based. The note with it: A549, 96 h, Table 3, 4 days culture. On the procedure:
as §1, §2
A549: Dulbecco's Modified Eagle's Medium (Sigma); 2000 cells/95 μL

Data set [3] has as its system Calu-6 human lung cancer cells. Kind of data set: Cell proliferation-inhibiting activity, Calu-6 (CellTiter-Glo, ATP in viable cells). Format: cell-based. The following applies: Calu-6, 96 h, Table 3, 4 days culture. The procedure:
as §1, §2
Calu-6: Eagle's Minimum Essential Medium (Sigma); 4000 cells/95 μL

Data set [4] can be described thus: Human liver microsome stability. The note with it: NADPH, 37° C.; for microsomal CLint at 0.99 µM: human liver microsomes (XENOTECH), pH 7.4, hepatic intrinsic clearance; for CLint: hepatic intrinsic clearance, human liver microsomes. Format: in vitro ADME. The procedure: There were dispensed 400 μL of 1 mg/mL human liver microsomes (XENOTECH)/0.1 M potassium phosphate buffer (pH 7.4) into each well of a 96-well plate. A DMSO solution (4 μL) of 200 μM test compound was then added, and incubation was conducted until reaching 37° C. To this reaction mixture (200 μL) there was added a solution (200 μL) containing 2 mM NADPH (ORIENTAL YEAST)/0.1 M potassium phosphate buffer (pH 7.4) that had been incubated at 37° C. At 0 min, 5 min, 15 min or 30 min after addition, the reaction mixture (50 μL) was added to acetonitrile (100 μL) to stop the metabolic reaction. After the metabolic reaction was stopped, a 1 μM warfarin aqueous solution (50 μL) was added to each reaction mixture as an internal standard. The reaction mixture was filtered and analyzed by LC/MS/MS (LC: NEXERA by Shimadzu; MS: 4000Q trap by ABSciex; column: Ascentis Express C18 HPLC column (5 cm×2.1 mm, 2.7 μm); ionization method: electrospray ionization). The percent remaining relative to the amount of test compound at 0 min was calculated from the obtained peak area ratio of the test compound to internal standard. The elimination rate constant (ke) was calculated from the incubation time and percent remaining using the primary elimination rate equation, and the hepatic intrinsic clearance (CLint) was calculated using the formula shown below. CLint (μL/min/mg)=ke (min^−1)/human liver microsome concentration (mg protein/μL)

As to `NC(=O)c1cc(Cc2ccnc(NS(=O)(=O)NC3CC3)c2F)c(F)cc1Nc1ccc(I)cc1F` [1-3, 5-[[2-(Cyclopropylsulfamoylamino)-3-fluoropyridin-4-yl]methyl]-4-fluoro-2-(2-fluoro-4-iodoanilino)benzamide], the results for the IC50 in data set [1], in data set [2] and in data set [3] were 0.021 µM, 0.032 µM and 0.12 µM, respectively.

Consider `CNS(=O)(=O)Nc1nccc(Cc2cc(C(=O)NC3CC3)c(Nc3ccc(I)cc3F)c(F)c2F)c1F` [A-2, N-cyclopropyl-3,4-difluoro-2-(2-fluoro-4-iodoanilino)-5-[[3-fluoro-2-(methylsulfamoylamino)pyridin-4-yl]methyl]benzamide], for which the figures for the IC50 in data set [1], in data set [2] and in data set [3] were 0.0001 µM, 0.001 µM and 0.002 µM, respectively.

In turn, `COCC1(NS(=O)(=O)Nc2nccc(Cc3cc(C(N)=O)c(Nc4ccc(I)cc4F)c(F)c3F)c2F)CC1` [A-16, 3,4-Difluoro-2-(2-fluoro-4-iodoanilino)-5-[[3-fluoro-2-[[1-(methoxymethyl)cyclopropyl]sulfamoylamino]pyridin-4-yl]methyl]benzamide] registered a microsomal CLint at 0.99 µM in data set [4] of 47 µL/min/mg.

In the case of `CC1(NS(=O)(=O)Nc2nccc(Cc3cc(C(N)=O)c(Nc4ccc(I)cc4F)c(F)c3F)c2F)CC1` [A-23, 3,4-Difluoro-2-(2-fluoro-4-iodoanilino)-5-[[3-fluoro-2-[(1-methylcyclopropyl)sulfamoylamino]pyridin-4-yl]methyl]benzamide], the “CLint” value in data set [4] was less than 1 µL/min/mg.

`CNS(=O)(=O)Nc1cccc(Cc2cc(C(=O)NC3CC3)c(Nc3ccc(C4CC4)cc3F)c(F)c2F)c1F` [D-15, N-Cyclopropyl-2-(4-cyclopropyl-2-fluoroanilino)-3,4-difluoro-5-[[2-fluoro-3-(methylsulfamoylamino)phenyl]methyl]benzamide]: the IC50 in data set [1] turned out to be 0.011 µM; in data set [3], 0.118 µM.

With `COCC1(S(=O)(=O)Nc2cccc(Cc3cc(C(=O)NOC)c(Nc4ccc(I)cc4F)c(F)c3F)c2F)CC1` [E-3, 3,4-Difluoro-2-(2-fluoro-4-iodoanilino)-5-[[2-fluoro-3-[[1-(methoxymethyl)cyclopropyl]sulfonylamino]phenyl]methyl]-N-methoxybenzamide], the microsomal CLint at 0.99 µM in data set [4] amounted to 149 µL/min/mg.

As for `CS(=O)(=O)Nc1cccc(Cc2cc(C(N)=O)c(Nc3ccc(I)cc3F)c(F)c2F)c1F` [E-13, 3,4-difluoro-2-(2-fluoro-4-iodoanilino)-5-[[2-fluoro-3-(methanesulfonamide)phenyl]methyl]benzamide], in data set [4], the microsomal CLint at 0.99 µM was 25 µL/min/mg.

Turning to `CC1(S(=O)(=O)Nc2cccc(Cc3cc(C(N)=O)c(Nc4ccc(I)cc4F)c(F)c3F)c2F)CC1` [E-16, 3,4-Difluoro-2-(2-fluoro-4-iodoanilino)-5-[[2-fluoro-3-[(1-methylcyclopropyl)sulfonylamino]phenyl]methyl]benzamide], the “CLint” value in data set [4] is less than 1 µL/min/mg.

For `CS(=O)(=O)Nc1cccc(Cc2cc(C(=O)NC3CC3)c(Nc3ccc(I)cc3F)c(F)c2F)c1F` [E-25, N-Cyclopropyl-3,4-difluoro-2-(2-fluoro-4-iodoanilino)-5-[[2-fluoro-3-(methanesulfonamide)phenyl]methyl]benzamide], the microsomal CLint at 0.99 µM in data set [4] worked out at 8 µL/min/mg.

With `CNS(=O)(=O)Nc1nccc(Cc2cc(C(=O)NC3CC3)c(Nc3ccc(C4CC4)cc3F)c(F)c2F)c1F` [G-1, N-Cyclopropyl-2-(4-cyclopropyl-2-fluoroanilino)-3,4-difluoro-5-[[3-fluoro-2-(methylsulfamoylamino)pyridin-4-yl]methyl]benzamide], the IC50 in data set [1] was 0.006 µM; in data set [2], 0.021 µM; in data set [3] it was 0.065 µM.

As for `CNS(=O)(=O)Nc1nccc(Cc2cc(C(N)=O)c(Nc3ccc4sccc4c3F)c(F)c2F)c1F` [H-3, 3,4-difluoro-2-[(4-fluoro-1-benzothiophen-5-yl)amino]-5-[[3-fluoro-2-(methylsulfamoylamino)pyridin-4-yl]methyl]benzamide], the IC50 was found to be 0.001 µM in data set [1] and 0.005 µM in data set [2].

Turning to `CNS(=O)(=O)Nc1nccc(Cc2cc(C(N)=O)c(Nc3ccc(C4CC4)cc3F)n(C)c2=O)c1F` [J-3, 2-(4-Cyclopropyl-2-fluoroanilino)-5-[[3-fluoro-2-(methylsulfamoylamino)pyridin-4-yl]methyl]-1-methyl-6-oxopyridine-3-carboxamide], the IC50 amounted to 0.123 µM in data set [1], 0.854 µM in data set [2] and 0.972 µM in data set [3].

`CCS(=O)(=O)Nc1cccc(Cc2cc(C(=O)NOC(C)(C)C)c(Nc3ccc(I)cc3F)n(C)c2=O)c1F` [K-9, 5-[[3-(Ethylsulfonylamino)-2-fluorophenyl]methyl]-2-(2-fluoro-4-iodoanilino)-1-methyl-N-[(2-methylpropan-2-yl)oxy]-6-oxopyridine-3-carboxamide] showed a microsomal CLint at 0.99 µM in data set [4] of 185 µL/min/mg.

As for `CCS(=O)(=O)Nc1nccc(Cn2cc(C(N)=O)c(Nc3ccc(I)cc3F)c(C)c2=O)c1F` [P-2, 1-[[2-(ethylsulfonylamino)-3-fluoropyridin-4-yl]methyl]-4-(2-fluoro-4-iodoanilino)-5-methyl-6-oxopyridine-3-carboxamide], the IC50 in data set [1] is 0.109 µM; in data set [3], 0.337 µM.

For `CNS(=O)(=O)Nc1nccc(Cc2c(C)c3ccc(Oc4ncccn4)cc3oc2=O)c1F` [Ref-5, 3-[[3-Fluoro-2-(methylsulfamoylamino)pyridin-4-yl]methyl]-4-methyl-7-pyrimidin-2-yloxychromen-2-one, reference compound], the “CLint” value in data set [4] is less than 1 µL/min/mg.
